Our source for the solubility values is patent publication US10058487B2, “Polymerizable dental material” (Muhlbauer Technology GmbH, priority 2014, dated 2018).

The nature of this data set: Determination of the water solubility by UV/visible spectroscopy. Type of data set: physicochemical. Conditions: saturated solution in deionized water, 23±2° C. On the procedure: The water solubility was determined in deionized water by UV/visible spectroscopy. The spectra were recorded with a UV/visible spectrometer (Evolution 600, Thermo Scientific) between 200-900 nm. The measurement was carried out in quartz cells (path length 10 mm). The pure solvent deionized water was used for the background spectrum. The background spectrum was subtracted from the spectra of the coinitiators.
Dilute solutions of the different coinitiators with known concentrations were prepared in deionized water. The absorption of the different coinitiators was measured in the absorption maximum (between 290-310 nm) and a linear relationship between the known concentrations and the measured absorptions was determined.
Saturated aqueous solutions of the coinitiators were diluted up to the point that the measured absorption falls in the linear region found above. The concentrations of the coinitiators in the saturated aqueous solutions are determined via the Lambert-Beer law.

Where [1] appears, read: 23 °C, thermodynamic from solid, read-out: Solubility.

Values after ≈ are worked out from the molar mass of the structure shown. Where two headings read alike, the source gives them in different places.

Consider “Polyethylene glycol monomethyl ether 4-dimethylaminobenzoate [PEGA]”, for which the solubility (in general, how much of the substance goes into solution per volume) is > 766000 µg/mL.
Regarding `CCCCC(CC)COC(=O)c1ccc(N(C)C)cc1` (centres unmarked) [EHA, 2-Ethylhexyl 4-dimethylaminobenzoate], under setting [1], the solubility stood at 26 µg/mL (≈ 93.7 µM).
With `CN(C)c1ccc(C(N)=O)cc1` [4-Dimethylaminobenzamide], the solubility under setting [1] stood at 427 µg/mL (≈ 2600 µM).
As to `CCCCOCCOC(=O)c1ccc(N(C)C)cc1` [2-(n-Butoxy)ethyl 4-dimethylaminobenzoate], the solubility under setting [1] was 35 µg/mL (≈ 132 µM).
Consider `CN(C)c1ccc(C#N)cc1` [4-Dimethylaminobenzonitrile], for which the solubility under setting [1] came to 278 µg/mL (≈ 1900 µM).
On the same count and under the same terms, under `CCOC(=O)c1ccc(N(C)C)cc1` [Ethyl 4-dimethylaminobenzoate] stands 36 µg/mL (≈ 186 µM); under `CCCNC(=O)c1ccc(N(C)C)cc1` [4-Dimethylamino-N-propylbenzamide], 680 µg/mL (≈ 3300 µM).
The same measure, in the same setting: under `COCCNC(=O)c1ccc(N(C)C)cc1` [4-Dimethylamino-N-(2-methoxyethyl)benzamide] stands 2670 µg/mL (≈ 12000 µM).
